Consider one compound from patent publication US12297175B2, “Physics-driven discovery of novel small therapeutic compounds for use as a BCL-2 inhibitor” (BAHCESEHIR UNIVERSITESI, priority 2020, dated 2025).

The test relates to HCT-116 cell lines. As to the kind of experiment: MTT cell proliferation assay. The class given is cell-based. As to the method:
For cell culture experiments various cancer cell lines, HCT-116 colon cancer, U87-MG glial tumor, MCF7 breast cancer cell lines were used. Cells were seeded with high glucose DMEM medium (Biosera) supplemented with 10% FBS (Gibco) and 1× penicillin/streptomycin (Multicell). Twenty-four hours prior to molecule treatment, 10,000 cells were seeded into each well of 24-well cell culture plates. Molecules were used by preparing 4 mM stock solution in DMSO (Amresco). For molecule treatment, molecule stock solutions were diluted in DMEM with 10% FBS and added onto cells in each corresponding well. Final concentration of vehicle DMSO was 2% at maximum. […] We calculated the number of cells to be seeded to make sure that none of the cells reaches more than 60% confluency during the treatment period, as higher plate confluency levels would slow down cell proliferation independently from the molecule treatment.
Values of half-maximal inhibitory concentration were (IC50) determined by MTT cell proliferation assays. […] 570 nm absorbance values were recorded and IC50 values were calculated by dose response—inhibition curves and nonlinear regression analysis on GraphPad Prism 8 software. […] Following the initial incubation day, molecules were added and after incubation with MTT at 37° C. for 4 hours, formazan was solubilized with DMSO (Sigma-Aldrich, St. Louis, USA) and absorbance was measured at 570 nm. […]

`Cc1ccc(C2CC(=O)N=C(SCC(=O)Nc3ccc(Br)cc3Cl)C2C#N)cc1` (centres unmarked) [compound of formula I]: under “HCT-116 cells, cell viability over time vs vehicle (max 2% DMSO)”, the “cell proliferation compared with vehicle group (FIG. 1)” value was “reduced proliferation and apoptotic cell structures”. Besides, the IC50 (Homo sapiens, 72 h, HCT-116 colon cancer cells, single treatment, three days results, 570 nm absorbance, read-out: IC50 value (half-maximal inhibitory concentration)) came out at 24 µM.
